Measurements taken from patent publication US20240238425A1, “HSD17B13 Inhibitors and/or Degraders” (Pfizer Inc., priority 2022, published 2024).
Structures can show the parent of a compound that is named as a salt.

System: HiBiT-HSD17β13 fusion protein (N-terminal HiBiT-tagged HSD17β13 isoform D) in Huh7 HiBiT-HSD17β13 OE cells
Assay: Whole-cell Huh7-HSD17B13 HiBiT assay (degrader potency and maximal efficacy, luminescence readout)
Type: cell-based, human
Conditions: 24 hour incubation, geometric mean, * = geometric mean for all forms tested (parent and salt forms); for DC50: read-out: Huh7_HIBIT-HSD17β13_DC50 GMean DC50; for Huh7_HIBIT-HSD17β13_DC50 GMean Asymptote Maximum: max. concentration 1 μM
Procedure, shortened: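 Luminescence from lytic HiBiT detection tracked residual HiBiT-HSD17β13 (isoform D, N-terminal tag) in a stable Huh7 overexpressing clone after 24 h compound treatment at 37° C, 11 concentrations up to 1 μM final. Percent effect used DMSO (zero) and parental Huh7 (high) wells; four-parameter fit gave 50% degradation; viability checked by CellTiter-Glo.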

Cn1c(=O)n(C2CCC(=O)NC2=O)c2ccc(CCCN3CCN(c4cnc(-c5ccc6cn([C@H]7CC[C@H](CNC(=O)c8cc(F)c(O)c(F)c8F)CC7)nc6c5)nc4)CC3)cc21 (mixture of isomers) [Example 76, N-{[(1r,4r)-4-(6-{5-[4-(3-{1-[(3RS)-2,6-dioxopiperidin-3-yl]-3-methyl-2-oxo-2,3-dihydro-1H-benzimidazol-5-yl}propyl)piperazin-1-yl]pyrimidin-2-yl}-2H-indazol-2-yl)cyclohexyl]methyl}-2,3,5-trifluoro-4-hydroxybenzamide, trifluoroacetate salt]
DC50: 0.15 nM | Huh7_HIBIT-HSD17β13_DC50 GMean Asymptote Maximum: 89* %

Cn1c(=O)n(C2CCC(=O)NC2=O)c2ccc(CN3CCOC4(CCN(c5ccc6cn([C@H]7CC[C@H](CNC(=O)c8cc(F)c(O)c(F)c8F)CC7)nc6c5)CC4)C3)cc21 (mixture of isomers) [Example 77, N-{[(1r,4r)-4-{6-[4-({1-[(3RS)-2,6-dioxopiperidin-3-yl]-3-methyl-2-oxo-2,3-dihydro-1H-benzimidazol-5-yl}methyl)-1-oxa-4,9-diazaspiro[5.5]undecan-9-yl]-2H-indazol-2-yl}cyclohexyl]methyl}-2,3,5-trifluoro-4-hydroxybenzamide, trifluoroacetate salt]
DC50: 0.93 nM | Huh7_HIBIT-HSD17β13_DC50 GMean Asymptote Maximum: 86%

Cn1c(=O)n(C2CCC(=O)NC2=O)c2ccc(CN3CCOC4(C3)CN(c3ncc(-c5ccc6cn([C@H]7CC[C@H](CNC(=O)c8cc(F)c(O)c(F)c8F)CC7)nc6c5)cn3)C4)cc21 (mixture of isomers) [Example 78, N-{[(1r,4r)-4-(6-{2-[8-({1-[(3RS)-2,6-dioxopiperidin-3-yl]-3-methyl-2-oxo-2,3-dihydro-1H-benzimidazol-5-yl}methyl)-5-oxa-2,8-diazaspiro[3.5]nonan-2-yl]pyrimidin-5-yl}-2H-indazol-2-yl)cyclohexyl]methyl}-2,3,5-trifluoro-4-hydroxybenzamide, trifluoroacetate salt]
DC50: 0.47 nM | Huh7_HIBIT-HSD17β13_DC50 GMean Asymptote Maximum: 78%

Cn1c(=O)n(C2CCC(=O)NC2=O)c2ccc(CCN3CCOC4(C3)CN(c3ncc(-c5ccc6cn([C@H]7CC[C@H](CNC(=O)c8cc(F)c(O)c(F)c8F)CC7)nc6c5)cn3)C4)cc21 (mixture of isomers) [Example 79, N-{[(1r,4r)-4-(6-{2-[8-(2-{1-[(3RS)-2,6-dioxopiperidin-3-yl]-3-methyl-2-oxo-2,3-dihydro-1H-benzimidazol-5-yl}ethyl)-5-oxa-2,8-diazaspiro[3.5]nonan-2-yl]pyrimidin-5-yl}-2H-indazol-2-yl)cyclohexyl]methyl}-2,3,5-trifluoro-4-hydroxybenzamide, trifluoroacetate salt]
DC50: 0.31 nM | Huh7_HIBIT-HSD17β13_DC50 GMean Asymptote Maximum: 78%

Cn1c(=O)n(C2CCC(=O)NC2=O)c2ccc(C3CC4(CCN(c5ncc(-c6ccc7cn([C@H]8CC[C@H](CNC(=O)c9cc(F)c(O)c(F)c9F)CC8)nc7c6)cn5)CC4)C3)cc21 (mixture of isomers) [Example 80, N-{[(1r,4r)-4-{6-[2-(2-{1-[(3RS)-2,6-dioxopiperidin-3-yl]-3-methyl-2-oxo-2,3-dihydro-1H-benzimidazol-5-yl}-7-azaspiro[3.5]nonan-7-yl)pyrimidin-5-yl]-2H-indazol-2-yl}cyclohexyl]methyl}-2,3,5-trifluoro-4-hydroxybenzamide, trifluoroacetate salt]
DC50: 1.4 nM | Huh7_HIBIT-HSD17β13_DC50 GMean Asymptote Maximum: 84%

Cn1c(=O)n(C2CCC(=O)NC2=O)c2ccc(CCCN3CCN(c4cccc(-c5nc(C67CCC(CNC(=O)c8cc(F)c(O)c(F)c8F)(CC6)CC7)no5)c4)CC3)cc21 (racemic) [Example 81, N-{[4-(5-{3-[4-(3-{1-[(3RS)-2,6-dioxopiperidin-3-yl]-3-methyl-2-oxo-2,3-dihydro-1H-benzimidazol-5-yl}propyl)piperazin-1-yl]phenyl}-1,2,4-oxadiazol-3-yl)bicyclo[2.2.2]octan-1-yl]methyl}-2,3,5-trifluoro-4-hydroxybenzamide]
DC50: 0.86 nM | Huh7_HIBIT-HSD17β13_DC50 GMean Asymptote Maximum: 81%

Cn1c(=O)n(C2CCC(=O)NC2=O)c2ccc(CN3CCN(c4ncc(-c5ccc6cn([C@]78CC[C@](CNC(=O)c9cc(F)c(O)c(F)c9F)(CC7)CC8)nc6c5)cn4)CC3)cc21 (mixture of isomers) [Example 83, N-{[4-(6-{2-[4-({1-[(3RS)-2,6-dioxopiperidin-3-yl]-3-methyl-2-oxo-2,3-dihydro-1H-benzimidazol-5-yl}methyl)piperazin-1-yl]pyrimidin-5-yl}-2H-indazol-2-yl)bicyclo[2.2.2]octan-1-yl]methyl}-2,3,5-trifluoro-4-hydroxybenzamide]
DC50: 0.5 nM | Huh7_HIBIT-HSD17β13_DC50 GMean Asymptote Maximum: 81%

Cn1c(=O)n(C2CCC(=O)NC2=O)c2ccc(CN3CCN(c4ncc(-c5ccn6cc([C@]78CC[C@](CNC(=O)c9cc(F)c(O)c(F)c9F)(CC7)CC8)nc6c5)cn4)CC3)cc21 (mixture of isomers) [Example 84, N-{[4-(7-{2-[4-({1-[(3RS)-2,6-dioxopiperidin-3-yl]-3-methyl-2-oxo-2,3-dihydro-1H-benzimidazol-5-yl}methyl)piperazin-1-yl]pyrimidin-5-yl}imidazo[1,2-a]pyridin-2-yl)bicyclo[2.2.2]octan-1-yl]methyl}-2,3,5-trifluoro-4-hydroxybenzamide]
DC50: 0.59 nM | Huh7_HIBIT-HSD17β13_DC50 GMean Asymptote Maximum: 83%

Cn1c(=O)n(C2CCC(=O)NC2=O)c2ccc(CCCN3C[C@@H]4CN(c5ccc6cn([C@H]7CC[C@H](CNC(=O)c8cc(F)c(O)c(F)c8F)CC7)nc6c5)C[C@@H]4C3)cc21 (mixture of isomers) [Example 85, N-{[(1r,4r)-4-{6-[(3aR,6aS)-5-(3-{1-[(3RS)-2,6-dioxopiperidin-3-yl]-3-methyl-2-oxo-2,3-dihydro-1H-benzimidazol-5-yl}propyl)hexahydropyrrolo[3,4-c]pyrrol-2(1H)-yl]-2H-indazol-2-yl}cyclohexyl]methyl}-2,3,5-trifluoro-4-hydroxybenzamide]
DC50: 0.86 nM | Huh7_HIBIT-HSD17β13_DC50 GMean Asymptote Maximum: 73%

Cn1c(=O)n(C2CCC(=O)NC2=O)c2ccc(CCCN3Cc4cnc(-c5ccc6cn([C@H]7CC[C@H](CNC(=O)c8cc(F)c(O)c(F)c8F)CC7)nc6c5)nc4C3)cc21 (mixture of isomers) [Example 86, N-{[(1r,4r)-4-{6-[6-(3-{1-[(3RS)-2,6-dioxopiperidin-3-yl]-3-methyl-2-oxo-2,3-dihydro-1H-benzimidazol-5-yl}propyl)-6,7-dihydro-5H-pyrrolo[3,4-d]pyrimidin-2-yl]-2H-indazol-2-yl}cyclohexyl]methyl}-2,3,5-trifluoro-4-hydroxybenzamide]
DC50: 0.27 nM | Huh7_HIBIT-HSD17β13_DC50 GMean Asymptote Maximum: 78%

Cn1c(=O)n(C2CCC(=O)NC2=O)c2ccc(CCCN3CCc4nc(-c5ccc6cn([C@H]7CC[C@H](CNC(=O)c8cc(F)c(O)c(F)c8F)CC7)nc6c5)ncc4C3)cc21 (mixture of isomers) [Example 87, N-{[(1r,4r)-4-{6-[6-(3-{1-[(3RS)-2,6-dioxopiperidin-3-yl]-3-methyl-2-oxo-2,3-dihydro-1H-benzimidazol-5-yl}propyl)-5,6,7,8-tetrahydropyrido[4,3-d]pyrimidin-2-yl]-2H-indazol-2-yl}cyclohexyl]methyl}-2,3,5-trifluoro-4-hydroxybenzamide]
DC50: 0.5 nM | Huh7_HIBIT-HSD17β13_DC50 GMean Asymptote Maximum: 78%
